Measured values published in patent EP4682156A1, “LINKER AND DRUG CONJUGATE USING SAME, AND ANTIBODY-DRUG CONJUGATE AND USE THEREOF” (Shanghai Affinity Biopharmaceutical Co., Ltd., priority 2023, dated 2024).
*1 amine or outer side, *2 acyl side, *3 side chain or, on linkers, in order; H or OH if unused. Where a SMILES comes first, the peptide text is derived from it. [ ]: non-standard residue; d: D form. The star is where a group is joined. Exatecan = CC[C@@]1(O)C(=O)OCc2c1cc1n(c2=O)Cc2c-1nc1cc(F)c(C)c3c1c2[C@@H](N*)CC3; Hexanoyl(6-maleimido) = O=C1C=CC(=O)N1CCCCCC(=O)*; Propanoyl(3-maleimido) = O=C1C=CC(=O)N1CCC(=O)*; PEG6 = NCCOCCOCCOCCOCCOCCOCCC(=O)O; NHCH2OCH2CO = O=C(COCN[*:1])[*:2]

Experiments:
[1] = target: T1, cathepsin L (Homo sapiens, UniProt P07711); test: Enzymatic cleavage by cathepsin L, released DXD quantified by HPLC; type: biochemical; conditions: within 20 h
Method: (§1) About 25 mg of DXD reference substance was accurately weighed and placed in a 5 mL volumetric flask. DMSO was added to the scale mark and the mixture was mixed to prepare a 10 mM solution which was marked as the standard stock solution. The standard stock solution was taken and prepared into standard solutions with concentrations of 20nmol/mL, 10nmol/mL, 5nmol/mL, 2nmol/mL, 1nmol/mL, and 0.2nmol/mL. 10uL was taken and injected into HPLC, the peak area was recorded. The linear equation was calculated by using the peak area as the ordinate and the concentration as the abscissa.
(§2) • chromatographic column: Agilent Eclipse Plus C18 5um, 4.6*250mm • Fluorescence detector: […] • Mobile phase A: 0.1%TFA/H2O B: ACN • Flow rate: 1ml/min • Injection volume: 10uL
• Assay Buffer: 50mM MES, 5mM DTT, 1mM EDTA, 0.005% (w/v) Brij-35, pH6.0. • Cathepsin L: 100 µg/mL in assay buffer, incubated on ice for 15 min.
Preparation of sample solution: An appropriate amount of L-AM-DXD was weighed and added with a certain amount of DMSO solution to make the concentration of the stock solution being 10 umol/mL. Then 10uL of the stock solution was taken and added with 80uL of DMSO to dilute to 1 umol/mL. Then pure water was added in a ratio of 1:4 to dilute the sample solution to a concentration of 0.2 umol/mL. […]

[2] = Stability in human plasma; type: in vitro ADME; conditions: within 20 hours
Method: • PBS buffer: pH = 7.2 • Protein precipitation agent: DMSO/MEOH = 1:1
(§3) Preparation of sample solution: An appropriate amount of MI-PEG6-GGFL-AM-DXD and GGFG-AM-DXD were weighed and added with a certain amount of DMSO solution to make the concentration of the stock solution thereof being 10 umol/mL. Then 10uL of the stock solution was taken and added with 80uL of DMSO to dilute to 1 umol/mL. Then pure water was added in a ratio of 1:4 to dilute the sample solution to a concentration of 0.2 umol/mL.
An appropriate amount of sample was weighed and prepared into a 1 mM solution with DMSO. Human plasma was added at a volume ratio of 1:9 and the solution was incubated in a 37°C incubator. Samples were taken after 0, 2, 4, 6, and 20 h. DMSO/MEOH (1:1) was added at a volume ratio of 1:3 to remove protein. The solution was centrifuged at 12,000 rpm for 5 min and the supernatant was collected. The HPLC method was as described in 1.2 of Example 4.

[3] = system: Human Fibrosarcoma; test: Drug efficacy study of drug conjugates on human fibrosarcoma tumor model; type: in vivo, Nude mice
[4] = target: T1, cathepsin L; test: Enzymatic cleavage by cathepsin L, released DXD quantified by HPLC; type: biochemical; conditions: pH 6
[5] = target: cathepsin B (Homo sapiens, UniProt P07858); test: Enzymatic cleavage by cathepsin B, released DXD quantified by HPLC; type: biochemical; conditions: 20 hours of action of cathepsin B, 37°C, pH 5.0
Method: as §1, §2
• Activation buffer: 25mM MES, 5mM DTT, pH 5.0 • Assay buffer: 25 mM MES, pH 5.0. • Cathepsin B: 100 µg/mL in activation buffer, incubated at room temperature for 15 minutes
Preparation of sample solution: An appropriate amount of MI-PEG6-GGFL-AM-DXD and EMC-GGFG-AM-DXD were respectively weighed and added with a certain amount of DMSO solution to make the concentration of the stock solution thereof being 10 umol/mL. Then 10uL of the stock solution was respectively taken and added with 80uL of DMSO to dilute to 1 umol/mL. […]

[6] = Stability in monkey heart homogenate; type: in vitro ADME; conditions: 20 hours, 37°C, pH 5.0
Method: (§4) • Assay buffer: 25 mM MES, pH 5.0. • Protein precipitation agent: DMSO/MEOH = 1:1
as §3, with “and EMC-GGFG-AM-DXD” for “and GGFG-AM-DXD”, “solution were” for “solution was”
(§5) An appropriate amount of fast frozen heart by liquid nitrogen was placed in a 4 mL EP tube and weighed. Assay buffer with pH 5.0 was added at a mass-to-volume ratio of 1:5. The tissue was homogenized using a tissue grinder for 3 min. The heart homogenate was then centrifuged at 12,000 rpm for 5 min. The supernatant was collected and stored in a -40°C refrigerator for later use.
(§6) The sample solution and the heart homogenate were respectively taken at a volume ratio of 1:9 and shaken thoroughly. Another sample solution and buffer solution (pH 5.0) were also shaken thoroughly at a volume ratio of 1:9 as a blank control solution. The solution was placed in a 37°C constant temperature water bath. 30uL was taken at 0h, 2h, 4h, and 20h, and added with 90uL of protein precipitation agent and shaken thoroughly. […]

[7] = Stability in monkey liver homogenate; type: in vitro ADME; conditions: 20 hours, 37°C, pH 5.0
Method: as §4
as §3, with “and EMC-GGFG-AM-DXD” for “and GGFG-AM-DXD”, “solution were” for “solution was”
as §5, with “liver” for “heart”
as §6, with “liver” for “heart”

[8] = Stability in human plasma; conditions: 20 hours, 37°C
[9] = Activation in CT26 tumor homogenate (tumor homogenate 2); conditions: tumor homogenate 2 (CT26), 20 hours, 37°C, pH 5.0
[10] = Activation in human gastric cancer tumor homogenate (tumor homogenate 1); conditions: tumor homogenate 1, after 20 hours, 37°C, pH 5.0
[11] = 5 µmol/kg (1/10 MTD) once a week for 3 weeks, Day 20

T1 sequence (P07711 114-333): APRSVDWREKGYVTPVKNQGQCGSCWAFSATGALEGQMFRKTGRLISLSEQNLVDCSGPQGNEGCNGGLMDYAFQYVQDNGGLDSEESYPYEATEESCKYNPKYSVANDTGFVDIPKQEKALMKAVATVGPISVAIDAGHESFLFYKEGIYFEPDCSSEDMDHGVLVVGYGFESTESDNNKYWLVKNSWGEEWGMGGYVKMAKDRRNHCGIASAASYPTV

Structure (SMILES): CC[C@@]1(O)C(=O)OCc2c1cc1n(c2=O)Cc2c-1nc1cc(F)c(C)c3c1c2[C@@H](NC(=O)COCNC(=O)[C@H](CC(C)C)NC(=O)[C@H](Cc1ccccc1)NC(=O)CNC(=O)CNC(=O)CCOCCOCCOCCOCCOCCOCCNC(=O)CCN1C(=O)C=CC1=O)CC3 [S7, MI-PEG6-GGFL-AM-DXd] ({Propanoyl(3-maleimido)-PEG6}-GGFL[NHCH2OCH2CO]-Exatecan)
- Enzymatic cleavage efficiency % [1]: 98.3%
- Generated load % [2]: 1.7%
- Substrate content % [2]: 98.3%
- Anti-tumor rate% Day 20 [3, 11]: 98%
- Tumor volume(mm^3) Day 20 [3, 11]: 20 mm^3
- treatment efficacy compared with DXd ([3]; same dose 5 µmol/kg once a week for 3 weeks): significantly improved treatment efficacy

Structure (SMILES): CC[C@@]1(O)C(=O)OCc2c1cc1n(c2=O)Cc2c-1nc1cc(F)c(C)c3c1c2[C@@H](NC(=O)COCNC(=O)CNC(=O)[C@H](Cc1ccccc1)NC(=O)CNC(=O)CNC(=O)CCCCCN1C(=O)C=CC1=O)CC3 [EMC-GGFG-AM-DXD, reference compound] ({Hexanoyl(6-maleimido)}-GGFG[NHCH2OCH2CO]-Exatecan)
- DXD produced, share of the reaction substrate (enzymatic cleavage activation efficiency) [4]: 27.8%
- DXD produced by enzymatic cleavage, share of the reaction substrate [5]: 45.2%
- DXD produced, share of the substrate [6]: 7.41%
- DXD produced, share of the substrate [7]: 27.6%
- DXD produced, share of the substrate [8]: 2.88%
- substrate contents [8]: 97.1%

Structure (SMILES): CC[C@@]1(O)C(=O)OCc2c1cc1n(c2=O)Cc2c-1nc1cc(F)c(C)c3c1c2[C@@H](NC(=O)COCNC(=O)[C@H](CC(C)C)NC(=O)[C@H](Cc1ccccc1)NC(=O)CNC(=O)CNC(=O)CCOCCOCCOCCOCCOCCOCCNC(=O)CCN1C(=O)C=CC1=O)CC3 [GGFL-AM-DXD] ({Propanoyl(3-maleimido)-PEG6}-GGFL[NHCH2OCH2CO]-Exatecan)
- DXD produced, share of the substrate [9]: 98.7%
- DXD produced, share of the substrate [10]: 94.2%
